Reference: US20250026766A1, “Thiazolopyridyl Amide Derivatives as DNA Polymerase Theta Inhibitors” (BeiGene, Ltd., priority 2022, published 2025)

Target: Pol Theta (1-894) (Homo sapiens (Human), UniProt O75417)
Experiment: Biochemical Pol Theta (1-894) ATPase IC50 assay (ADP-Glo, ssDNA substrate)
Conditions: ADP-Glo assay with ssDNA substrate, room temperature
Experimental: Baculovirus Expression of Human POL theta (1-894)
Human POL Theta (1-894)-His-pFastBac1 baculovirus samples were generated using the Bac-to-Bac baculovirus expression system (Invitrogen) according to the manufacturer's protocol. […] Baculovirus amplification was achieved using infected SF9 cells at 1:2000 virus/cells ratios, and grown for 96 hours at 27° C. post-transfection. The expression scaled up for each protein was carried out in the flask 3 L from CORNING. 4 L of 3×10^6 cells/mL Sf9 cells (Expression System, Invitrogen) grown in SF900TM II SFM insect medium (Expression System) were infected with virus stock at 1:200 virus/cell ratios, and grown for 48 hours at 27° C. post-transfection. The infected cell culture was harvested by centrifugation at 6000 rpm for 15 min 4° C. in a SORVALL LYNX6000 centrifuge. The cell pellets were stored at −80° C.
The human POL Theta (1-894)-His produced as described above, were purified from Sf9 baculovirus-infected insect cell paste. The cells were lysed using sonication method, and the lysates were clarified by centrifugation.
Enzymatic reactions of Pol Theta (1-894) were performed using ADP-Glo assay with ssDNA substrate. Pol Theta (1-894) was expressed in baculovirus expression system. The inhibition activities testing for the compound disclosed herein were carried out at room temperature in assay buffer containing 40 mM Tris pH 7.5, 20 mM MgCl2, 1 mM DTT, 0.01% BSA and 0.05% Tween-20. Compounds in DMSO were dispensed into wells of a black 384 well plate (Corning 4514) using D300e digital dispenser (Tecan). The ranges of compounds final concentration were 2.62 nM˜10000 nM. 3 μL 2× enzyme solution containing 12.5 nM enzyme was added to wells. […] After 1 hour reaction, 5 μL ADP-Glo reagent (Promga V9102) was added and incubated for 40 minutes. 10 μL Kinase Detection reagent was added and incubated for 40 minutes. Luminescence was measured on a microplate reader (PHERAstar FSX, BMG labtech). The IC50 values were calculated based on inhibition of enzyme activity in the presence of increasing concentrations of compounds.

Chain of Pol Theta (1-894) (O75417 1-894): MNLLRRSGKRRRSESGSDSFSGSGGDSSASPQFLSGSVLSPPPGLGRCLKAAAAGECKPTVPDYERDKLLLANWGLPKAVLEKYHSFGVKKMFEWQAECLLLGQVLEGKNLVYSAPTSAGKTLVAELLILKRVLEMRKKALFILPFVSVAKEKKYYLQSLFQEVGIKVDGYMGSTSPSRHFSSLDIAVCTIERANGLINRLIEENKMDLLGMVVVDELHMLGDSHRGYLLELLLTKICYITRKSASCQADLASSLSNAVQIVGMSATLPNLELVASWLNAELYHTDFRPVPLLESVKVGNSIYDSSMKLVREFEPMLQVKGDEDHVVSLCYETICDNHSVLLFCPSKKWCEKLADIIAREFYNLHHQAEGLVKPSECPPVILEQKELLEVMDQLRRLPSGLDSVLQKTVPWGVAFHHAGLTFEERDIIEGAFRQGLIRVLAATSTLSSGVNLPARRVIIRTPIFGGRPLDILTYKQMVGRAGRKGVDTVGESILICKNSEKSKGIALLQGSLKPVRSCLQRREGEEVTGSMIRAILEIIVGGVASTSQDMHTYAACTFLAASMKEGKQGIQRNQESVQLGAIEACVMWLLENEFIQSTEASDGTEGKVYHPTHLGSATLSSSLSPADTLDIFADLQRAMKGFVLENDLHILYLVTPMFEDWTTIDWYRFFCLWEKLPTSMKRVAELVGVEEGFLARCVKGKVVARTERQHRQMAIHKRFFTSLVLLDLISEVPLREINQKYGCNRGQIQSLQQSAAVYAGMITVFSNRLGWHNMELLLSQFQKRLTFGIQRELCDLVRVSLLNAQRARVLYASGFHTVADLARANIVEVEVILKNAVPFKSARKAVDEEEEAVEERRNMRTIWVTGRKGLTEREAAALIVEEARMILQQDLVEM

Compound | IC50
COc1ccc(C#N)cc1-c1cc(C)ncc1C(=O)Nc1nc2ccc(-c3ccc(OCCO)cc3)nc2s1 [Example 122, 4-(5-cyano-2-methoxyphenyl)-N-(5-(4-(2-hydroxyethoxy)phenyl)thiazolo[5,4-b]pyridin-2-yl)-6-methylnicotinamide] | 14 nM
COc1ccccc1-c1cnncc1C(=O)Nc1nc2ccc(Oc3ccc(Cl)cc3)nc2s1 [Example 98, N-(5-(4-chlorophenoxy)thiazolo[5,4-b]pyridin-2-yl)-5-(2-methoxyphenyl)pyridazine-4-carboxamide] | 22 nM
COc1ccc(C#N)cc1-c1cc(C)ncc1C(=O)Nc1nc2ccc(-c3ccc(C4CC4)cc3)nc2s1 [Example 20, 4-(5-cyano-2-methoxyphenyl)-N-(5-(4-cyclopropylphenyl)thiazolo[5,4-b]pyridin-2-yl)-6-methylnicotinamide] | 54 nM
COc1ccc(OC)c(-c2cc(C)ncc2C(=O)Nc2nc3ccc(-c4ccc(C#N)cc4)nc3s2)c1 [Example 49, N-(5-(4-cyanophenyl)thiazolo[5,4-b]pyridin-2-yl)-4-(2,5-dimethoxyphenyl)-6-methylnicotinamide] | 150 nM
CCC(=O)Nc1ccc(-c2ccc3nc(NC(=O)c4cnc(C)cc4-c4cc(C#N)ccc4OC)sc3n2)cc1 [Example 41, 4-(5-cyano-2-methoxyphenyl)-6-methyl-N-(5-(4-propionamidophenyl)thiazolo[5,4-b]pyridin-2-yl)nicotinamide] | 91 nM
COc1ccc(C#N)cc1-c1cc(C)ncc1C(=O)Nc1nc2ccc(CCc3ccc(Cl)cc3)nc2s1 [Example 107, N-(5-(4-chlorophenethyl)thiazolo[5,4-b]pyridin-2-yl)-4-(5-cyano-2-methoxyphenyl)-6-methylnicotinamide] | 17 nM
COc1ccc(C#N)cc1-c1cc(C)ncc1C(=O)Nc1nc2ccc(-c3ccc([C@@H](C)C#N)cc3)nc2s1 [Example 177A, (R)-4-(5-cyano-2-methoxyphenyl)-N-(5-(4-(1-cyanoethyl)phenyl)thiazolo[5,4-b]pyridin-2-yl)-6-methylnicotinamide] | 25 nM
COc1ccc(C#N)cc1-c1cc(C)ncc1C(=O)Nc1nc2ccc(C3CCOCC3)nc2s1 [Example 67, 4-(5-cyano-2-methoxyphenyl)-6-methyl-N-(5-(tetrahydro-2H-pyran-4-yl)thiazolo[5,4-b]pyridin-2-yl)nicotinamide] | 64 nM
COc1ccccc1-c1cnncc1C(=O)Nc1nc2ccc(-c3ccc(NC(=O)C4CC4)cc3)nc2s1 [Example 71, N-(5-(4-(cyclopropanecarboxamido)phenyl)thiazolo[5,4-b]pyridin-2-yl)-5-(2-methoxyphenyl)pyridazine-4-carboxamide] | 83 nM
COc1ccc(C(F)(F)F)cc1-c1cc(C)ncc1C(=O)Nc1nc2ccc(-c3ccc(NC(C)=O)cc3)nc2s1 [Example 24, N-(5-(4-acetamidophenyl)thiazolo[5,4-b]pyridin-2-yl)-4-(2-methoxy-5-(trifluoromethyl)phenyl)-6-methylnicotinamide] | 62 nM
COc1c(F)cccc1-c1cc(C)ncc1C(=O)Nc1nc2ccc(-c3ccc(C#N)cc3)nc2s1 [Example 75, N-(5-(4-cyanophenyl)thiazolo[5,4-b]pyridin-2-yl)-4-(3-fluoro-2-methoxyphenyl)-6-methylnicotinamide] | 32 nM
COc1cccc(C)c1-c1cc(C)ncc1C(=O)Nc1nc2ccc(-c3ccc(C#N)cc3)nc2s1 [Example 87, N-(5-(4-cyanophenyl)thiazolo[5,4-b]pyridin-2-yl)-4-(2-methoxy-6-methylphenyl)-6-methylnicotinamide] | 371 nM
COc1ccc(C#N)cc1-c1cc(C)ncc1C(=O)Nc1nc2ccc(C3CCOC3)nc2s1 (centres unmarked) [Example 127, 4-(5-cyano-2-methoxyphenyl)-6-methyl-N-(5-(tetrahydrofuran-3-yl)thiazolo[5,4-b]pyridin-2-yl)nicotinamide] | 35 nM
COc1ccccc1-c1cnncc1C(=O)Nc1nc2ccc(-c3ccc(Cl)cn3)nc2s1 [Example 55, N-(5-(5-chloropyridin-2-yl)thiazolo[5,4-b]pyridin-2-yl)-5-(2-methoxyphenyl)pyridazine-4-carboxamide] | 5 nM
CCNC(=O)c1ccc(-c2ccc3nc(NC(=O)c4cnncc4-c4ccccc4OC)sc3n2)c(C)c1 [Example 132, N-(5-(4-(ethylcarbamoyl)-2-methylphenyl)thiazolo[5,4-b]pyridin-2-yl)-5-(2-methoxyphenyl)pyridazine-4-carboxamide] | 12 nM
COc1ccccc1-c1cnncc1C(=O)Nc1nc2ccc(-c3ccc(Cl)cc3Cl)nc2s1 [Example 117, N-(5-(2,4-dichlorophenyl)thiazolo[5,4-b]pyridin-2-yl)-5-(2-methoxyphenyl)pyridazine-4-carboxamide] | 12 nM
COCc1ccc(-c2ccc3nc(NC(=O)c4cnc(C)cc4-c4cc(C#N)ccc4OC)sc3n2)cc1 [Example 79, 4-(5-cyano-2-methoxyphenyl)-N-(5-(4-(methoxymethyl)phenyl)thiazolo[5,4-b]pyridin-2-yl)-6-methylnicotinamide] | 41 nM
COc1ccccc1-c1cnncc1C(=O)Nc1nc2ccc(-c3ccc(C(=O)NC(C)C)cc3)nc2s1 [Example 102, N-(5-(4-(isopropylcarbamoyl)phenyl)thiazolo[5,4-b]pyridin-2-yl)-5-(2-methoxyphenyl)pyridazine-4-carboxamide] | 63 nM
COc1ccccc1-c1cnncc1C(=O)Nc1nc2ccc(-c3ccn[nH]3)nc2s1 [Example 47, N-(5-(1H-pyrazol-5-yl)thiazolo[5,4-b]pyridin-2-yl)-5-(2-methoxyphenyl)pyridazine-4-carboxamide] | 99 nM
Cc1cc(-c2cccc3c2OCO3)c(C(=O)Nc2nc3ccc(-c4ccc(C#N)cc4)nc3s2)cn1 [Example 68, 4-(benzo[d][1,3]dioxol-4-yl)-N-(5-(4-cyanophenyl)thiazolo[5,4-b]pyridin-2-yl)-6-methylnicotinamide] | 253 nM
COc1ccc(C#N)cc1-c1cc(C)ncc1C(=O)Nc1nc2ccc(-c3ccc(C#N)cc3C)nc2s1 [Example 169, 4-(5-cyano-2-methoxyphenyl)-N-(5-(4-cyano-2-methylphenyl)thiazolo[5,4-b]pyridin-2-yl)-6-methylnicotinamide] | 7.5 nM
COc1cccc(F)c1-c1cnccc1C(=O)Nc1nc2ccc(-c3ccc(NC(C)=O)cc3)nc2s1 [Example 31, N-(5-(4-acetamidophenyl)thiazolo[5,4-b]pyridin-2-yl)-3-(2-fluoro-6-methoxyphenyl)isonicotinamide] | 70 nM
COc1ccc(C#N)cc1-c1cc(C)ncc1C(=O)Nc1nc2ccc(-c3ccc(N4C(=O)COC4=O)c(C)c3)nc2s1 [Example 163, 4-(5-cyano-2-methoxyphenyl)-N-(5-(4-(2,4-dioxooxazolidin-3-yl)-3-methylphenyl)thiazolo[5,4-b]pyridin-2-yl)-6-methylnicotinamide] | 28 nM
COc1ccc(C#N)cc1-c1cc(C)ncc1C(=O)Nc1nc2ccc(-c3ccc(C(=O)N4CCCC4)cc3)nc2s1 [Example 85, 4-(5-cyano-2-methoxyphenyl)-6-methyl-N-(5-(4-(pyrrolidine-1-carbonyl)phenyl)thiazolo[5,4-b]pyridin-2-yl)nicotinamide] | 62 nM
COc1ccccc1-c1cnncc1C(=O)Nc1nc2ccc(-c3ccc(Cl)c(C)c3C)nc2s1 [Example 139, N-(5-(4-chloro-2,3-dimethylphenyl)thiazolo[5,4-b]pyridin-2-yl)-5-(2-methoxyphenyl)pyridazine-4-carboxamide] | 21 nM
CCNC(=O)c1ccc(-c2ccc3nc(NC(=O)c4cnncc4-c4ccccc4OC)sc3n2)cc1 [Example 108, N-(5-(4-(ethylcarbamoyl)phenyl)thiazolo[5,4-b]pyridin-2-yl)-5-(2-methoxyphenyl)pyridazine-4-carboxamide] | 19 nM
COc1ccccc1-n1cncc1C(=O)Nc1nc2ccc(-c3ccc(Cl)cc3)nc2s1 [Example 12, N-(5-(4-chlorophenyl)thiazolo[5,4-b]pyridin-2-yl)-1-(2-methoxyphenyl)-1H-imidazole-5-carboxamide] | 324 nM
COc1ccc(C#N)cc1-c1cc(C)ncc1C(=O)Nc1nc2ccc(-c3ccc(C#N)c(C)c3)nc2s1 [Example 166, 4-(5-cyano-2-methoxyphenyl)-N-(5-(4-cyano-3-methylphenyl)thiazolo[5,4-b]pyridin-2-yl)-6-methylnicotinamide] | 13 nM
COc1ccc(C#N)cc1-c1cc(CO)ncc1C(=O)Nc1nc2ccc(-c3ccc(C#N)cc3C)nc2s1 [Example 176, 4-(5-cyano-2-methoxyphenyl)-N-(5-(4-cyano-2-methylphenyl)thiazolo[5,4-b]pyridin-2-yl)-6-(hydroxymethyl)nicotinamide] | 9.1 nM
